Measured values: publication PMC10924921, “Mi-2β promotes immune evasion in melanoma by activating EZH2 methylation” (Nature Communications, 2024)

Columns and labels:
Assay in all cases: biochemical
Parameters in all cases: KINOMEscan active-site competition binding panel (468 kinase assays), per cent of control at 1000 nM
Settings in all cases: KINOMEscan per cent of control (binding competition); read-out: Percent Control
[1] = target: PIP5K1A (Homo sapiens, UniProt Q99755)
Source text: (§1) Figure S7 / Percent Control

[2] = target: CSNK1G1 (Homo sapiens, UniProt Q9HCP0)
Chain of CSNK1G1 (Q9HCP0 whole entry): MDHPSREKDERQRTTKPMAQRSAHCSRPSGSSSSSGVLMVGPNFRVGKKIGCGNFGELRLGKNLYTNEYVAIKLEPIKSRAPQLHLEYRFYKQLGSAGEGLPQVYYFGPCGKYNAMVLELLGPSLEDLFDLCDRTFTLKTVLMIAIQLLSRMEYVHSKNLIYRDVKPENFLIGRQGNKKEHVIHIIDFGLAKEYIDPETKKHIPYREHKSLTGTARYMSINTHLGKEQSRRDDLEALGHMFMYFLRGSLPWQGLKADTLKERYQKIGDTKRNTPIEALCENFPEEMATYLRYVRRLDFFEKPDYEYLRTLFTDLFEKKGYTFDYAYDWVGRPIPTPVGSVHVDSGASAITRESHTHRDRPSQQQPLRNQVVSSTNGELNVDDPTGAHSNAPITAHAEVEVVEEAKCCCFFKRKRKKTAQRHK
Source text: as §1

[3] = target: PKN1 (Homo sapiens, UniProt Q16512)
Source text: as §1

[4] = target: T1, SgK110 (Homo sapiens, UniProt P0C264)
T1 construct: gene SBK3
T1 sequence (P0C264 whole entry): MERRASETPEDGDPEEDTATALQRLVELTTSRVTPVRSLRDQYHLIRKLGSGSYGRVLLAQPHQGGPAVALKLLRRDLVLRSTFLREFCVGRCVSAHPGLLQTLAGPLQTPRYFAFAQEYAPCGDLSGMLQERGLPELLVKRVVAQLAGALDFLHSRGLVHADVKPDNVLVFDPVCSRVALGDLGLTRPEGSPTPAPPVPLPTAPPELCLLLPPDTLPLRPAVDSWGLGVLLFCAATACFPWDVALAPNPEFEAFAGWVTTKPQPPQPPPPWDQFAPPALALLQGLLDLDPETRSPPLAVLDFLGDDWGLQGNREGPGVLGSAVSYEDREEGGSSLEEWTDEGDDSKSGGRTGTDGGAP
Source text: as §1

[5] = target: PIK3CD (Homo sapiens, UniProt O00329)
Chain of PIK3CD (O00329 whole entry): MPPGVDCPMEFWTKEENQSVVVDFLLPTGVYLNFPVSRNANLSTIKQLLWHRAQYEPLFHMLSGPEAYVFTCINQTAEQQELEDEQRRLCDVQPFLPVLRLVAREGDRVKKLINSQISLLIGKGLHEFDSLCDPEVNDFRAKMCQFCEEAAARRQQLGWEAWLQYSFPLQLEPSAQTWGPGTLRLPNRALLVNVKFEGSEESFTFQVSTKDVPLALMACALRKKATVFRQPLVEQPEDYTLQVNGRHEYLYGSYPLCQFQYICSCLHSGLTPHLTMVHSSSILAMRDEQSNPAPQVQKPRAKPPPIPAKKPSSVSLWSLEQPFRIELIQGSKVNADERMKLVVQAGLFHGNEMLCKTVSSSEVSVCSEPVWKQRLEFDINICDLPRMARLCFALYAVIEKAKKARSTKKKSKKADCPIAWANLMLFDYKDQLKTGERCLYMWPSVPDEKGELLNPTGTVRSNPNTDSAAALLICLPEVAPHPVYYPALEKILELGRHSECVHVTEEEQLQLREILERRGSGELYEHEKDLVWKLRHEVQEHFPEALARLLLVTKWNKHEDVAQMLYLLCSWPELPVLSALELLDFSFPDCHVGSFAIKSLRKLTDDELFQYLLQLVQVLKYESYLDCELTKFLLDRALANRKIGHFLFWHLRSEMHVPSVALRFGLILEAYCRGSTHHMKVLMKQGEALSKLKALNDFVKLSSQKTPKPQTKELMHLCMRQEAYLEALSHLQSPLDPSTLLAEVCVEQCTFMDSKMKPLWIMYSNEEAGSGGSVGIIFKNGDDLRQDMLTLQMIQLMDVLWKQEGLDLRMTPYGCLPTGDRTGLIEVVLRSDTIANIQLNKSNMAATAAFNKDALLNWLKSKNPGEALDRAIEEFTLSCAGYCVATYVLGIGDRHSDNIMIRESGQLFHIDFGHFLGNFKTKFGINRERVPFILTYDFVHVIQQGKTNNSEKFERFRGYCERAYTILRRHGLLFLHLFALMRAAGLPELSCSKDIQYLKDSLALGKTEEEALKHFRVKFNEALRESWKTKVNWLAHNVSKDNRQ
Source text: as §1

[6] = target: EGFR(G719C) (Homo sapiens, UniProt P00533, G719C)
Source text: as §1

[7] = target: ACVR2B (Homo sapiens, UniProt Q13705)
Source text: as §1

[8] = target: CAMK2G (Homo sapiens, UniProt Q13555)
Source text: as §1

[9] = target: T2, TRKA (Homo sapiens, UniProt P04629)
T2 construct: gene NTRK1
Source text: as §1

[10] = target: T3, ABL1(T315I)-nonphosphorylated (Homo sapiens, UniProt P00519, T315I)
T3 construct: nonphosphorylated
Source text: as §1

[11] = target: DYRK1B (Homo sapiens, UniProt Q9Y463)
Source text: as §1

[12] = target: T4, DLK (Homo sapiens, UniProt Q12852)
T4 construct: gene MAP3K12
Source text: as §1

[13] = target: FLT3(ITD) (Homo sapiens, UniProt P36888, ITD)
Source text: as §1

[14] = target: NEK10 (Homo sapiens, UniProt Q6ZWH5)
Source text: as §1

[15] = target: T5, PYK2 (Homo sapiens, UniProt Q14289)
T5 construct: gene PTK2B
Source text: as §1

[16] = target: T6, NIK (Homo sapiens, UniProt Q99558)
T6 construct: gene MAP3K14
T6 sequence (Q99558 whole entry): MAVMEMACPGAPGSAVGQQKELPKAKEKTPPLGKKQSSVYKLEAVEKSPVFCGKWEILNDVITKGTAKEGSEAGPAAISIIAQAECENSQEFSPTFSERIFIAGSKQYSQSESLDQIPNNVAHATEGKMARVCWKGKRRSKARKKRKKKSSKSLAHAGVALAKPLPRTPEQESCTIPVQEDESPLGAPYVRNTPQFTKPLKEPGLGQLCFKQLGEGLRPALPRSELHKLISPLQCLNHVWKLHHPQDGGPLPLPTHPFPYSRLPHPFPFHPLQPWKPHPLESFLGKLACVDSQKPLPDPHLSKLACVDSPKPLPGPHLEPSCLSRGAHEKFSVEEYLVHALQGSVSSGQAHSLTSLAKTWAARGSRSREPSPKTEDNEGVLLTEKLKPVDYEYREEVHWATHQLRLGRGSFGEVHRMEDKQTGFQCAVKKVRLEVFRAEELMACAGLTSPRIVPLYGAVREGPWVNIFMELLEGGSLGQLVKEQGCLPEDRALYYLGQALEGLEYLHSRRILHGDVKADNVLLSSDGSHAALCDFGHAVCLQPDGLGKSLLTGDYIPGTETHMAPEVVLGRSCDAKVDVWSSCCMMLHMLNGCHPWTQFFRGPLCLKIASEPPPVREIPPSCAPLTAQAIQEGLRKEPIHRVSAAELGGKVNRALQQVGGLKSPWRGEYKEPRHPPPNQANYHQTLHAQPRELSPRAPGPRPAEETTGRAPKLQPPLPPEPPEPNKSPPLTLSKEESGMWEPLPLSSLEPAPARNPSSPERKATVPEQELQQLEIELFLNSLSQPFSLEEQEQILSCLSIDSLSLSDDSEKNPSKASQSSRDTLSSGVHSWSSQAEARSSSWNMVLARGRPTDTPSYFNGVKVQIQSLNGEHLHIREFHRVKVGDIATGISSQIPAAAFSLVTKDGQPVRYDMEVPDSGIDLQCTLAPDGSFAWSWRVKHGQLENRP
Source text: as §1

[17] = target: HIPK4 (Homo sapiens, UniProt Q8NE63)
Chain of HIPK4 (Q8NE63 whole entry): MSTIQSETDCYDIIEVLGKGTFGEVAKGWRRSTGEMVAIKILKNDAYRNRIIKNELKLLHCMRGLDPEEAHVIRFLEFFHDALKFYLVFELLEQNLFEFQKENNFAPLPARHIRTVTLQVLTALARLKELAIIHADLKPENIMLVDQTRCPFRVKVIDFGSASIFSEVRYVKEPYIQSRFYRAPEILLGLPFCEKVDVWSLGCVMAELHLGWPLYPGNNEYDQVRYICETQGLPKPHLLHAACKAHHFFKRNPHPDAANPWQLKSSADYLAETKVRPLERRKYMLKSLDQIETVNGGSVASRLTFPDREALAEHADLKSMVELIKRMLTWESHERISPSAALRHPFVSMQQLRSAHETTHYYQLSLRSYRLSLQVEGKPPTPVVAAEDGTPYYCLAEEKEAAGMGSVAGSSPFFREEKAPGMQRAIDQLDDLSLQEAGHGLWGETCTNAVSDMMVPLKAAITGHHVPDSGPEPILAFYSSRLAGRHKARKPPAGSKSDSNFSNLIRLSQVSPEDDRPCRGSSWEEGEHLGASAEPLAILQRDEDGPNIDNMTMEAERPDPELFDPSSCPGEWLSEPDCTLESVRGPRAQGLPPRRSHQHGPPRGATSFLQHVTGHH
Source text: as §1

[18] = target: DMPK (Homo sapiens, UniProt Q09013)
Source text: as §1

[19] = target: PDGFRA (Homo sapiens, UniProt P16234)
Chain of PDGFRA (P16234 whole entry): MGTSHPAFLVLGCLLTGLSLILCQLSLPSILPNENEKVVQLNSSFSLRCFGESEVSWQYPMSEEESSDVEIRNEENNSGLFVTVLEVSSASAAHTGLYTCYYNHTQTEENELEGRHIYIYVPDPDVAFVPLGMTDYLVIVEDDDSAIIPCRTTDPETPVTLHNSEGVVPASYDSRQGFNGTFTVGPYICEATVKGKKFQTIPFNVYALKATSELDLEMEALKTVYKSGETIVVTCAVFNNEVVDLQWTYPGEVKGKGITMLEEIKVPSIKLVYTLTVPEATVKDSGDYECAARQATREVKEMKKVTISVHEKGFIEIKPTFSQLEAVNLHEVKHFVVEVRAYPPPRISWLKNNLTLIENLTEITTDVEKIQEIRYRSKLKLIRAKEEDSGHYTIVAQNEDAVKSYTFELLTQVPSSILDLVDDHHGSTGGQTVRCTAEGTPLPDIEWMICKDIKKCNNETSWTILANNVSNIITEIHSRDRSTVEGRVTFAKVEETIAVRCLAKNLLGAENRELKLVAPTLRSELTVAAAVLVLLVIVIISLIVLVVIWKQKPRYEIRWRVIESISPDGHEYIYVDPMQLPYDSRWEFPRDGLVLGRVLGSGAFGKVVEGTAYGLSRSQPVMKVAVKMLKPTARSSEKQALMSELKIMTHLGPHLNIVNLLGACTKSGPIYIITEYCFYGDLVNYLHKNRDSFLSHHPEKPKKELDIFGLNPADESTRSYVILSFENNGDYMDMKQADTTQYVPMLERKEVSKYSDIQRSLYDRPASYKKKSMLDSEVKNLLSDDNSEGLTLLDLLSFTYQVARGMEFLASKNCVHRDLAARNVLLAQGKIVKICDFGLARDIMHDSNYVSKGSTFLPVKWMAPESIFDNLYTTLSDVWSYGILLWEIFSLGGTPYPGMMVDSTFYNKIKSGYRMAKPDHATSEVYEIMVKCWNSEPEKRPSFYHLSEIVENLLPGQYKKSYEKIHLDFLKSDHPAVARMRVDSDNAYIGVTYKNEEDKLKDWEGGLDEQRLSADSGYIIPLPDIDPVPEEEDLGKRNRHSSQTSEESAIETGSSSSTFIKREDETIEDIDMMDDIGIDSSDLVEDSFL
Source text: as §1

[20] = target: T7, IKK-alpha (Homo sapiens, UniProt O15111)
T7 construct: gene CHUK
Source text: as §1

[21] = target: RIOK1 (Homo sapiens, UniProt Q9BRS2)
Chain of RIOK1 (Q9BRS2 whole entry): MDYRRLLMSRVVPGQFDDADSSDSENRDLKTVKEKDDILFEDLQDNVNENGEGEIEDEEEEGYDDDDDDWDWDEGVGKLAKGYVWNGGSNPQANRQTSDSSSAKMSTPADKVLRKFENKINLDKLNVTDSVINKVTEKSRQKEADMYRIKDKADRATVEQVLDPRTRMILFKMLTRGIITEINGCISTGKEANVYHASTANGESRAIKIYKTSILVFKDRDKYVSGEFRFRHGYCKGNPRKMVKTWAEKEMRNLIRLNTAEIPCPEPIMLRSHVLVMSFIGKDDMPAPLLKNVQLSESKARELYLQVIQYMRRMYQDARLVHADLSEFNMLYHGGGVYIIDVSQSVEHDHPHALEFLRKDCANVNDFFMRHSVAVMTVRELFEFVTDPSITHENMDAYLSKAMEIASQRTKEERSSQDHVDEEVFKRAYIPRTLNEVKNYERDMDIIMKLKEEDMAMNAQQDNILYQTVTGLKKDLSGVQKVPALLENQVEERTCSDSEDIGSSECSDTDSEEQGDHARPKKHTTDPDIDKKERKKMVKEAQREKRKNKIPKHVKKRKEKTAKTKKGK
Source text: as §1

[22] = target: T8, AMPK-alpha2 (Homo sapiens, UniProt P54646)
T8 construct: gene PRKAA2
Source text: as §1

[23] = target: PAK6 (Homo sapiens, UniProt Q9NQU5)
Source text: as §1

[24] = target: TAOK3 (Homo sapiens, UniProt Q9H2K8)
Source text: as §1

[25] = target: ANKK1 (Homo sapiens, UniProt Q8NFD2)
Source text: as §1

## Cn1c(=O)[nH]c2ccc(-c3cccc(C(=O)NC4CCn5ccnc5C4)c3)cc21 (stereo not shown) [Z36-MP5]
[1]
  remaining binding at 1 µM: 57%
[2]
  remaining binding at 1 µM: 63%
[3]
  remaining binding at 1 µM: 99%
[4]
  remaining binding at 1 µM: 97%
[5]
  remaining binding at 1 µM: 74%
[6]
  remaining binding at 1 µM: 79%
[7]
  remaining binding at 1 µM: 91%
[8]
  remaining binding at 1 µM: 55%
[9]
  remaining binding at 1 µM: 67%
[10]
  remaining binding at 1 µM: 56%
[11]
  remaining binding at 1 µM: 86%
[12]
  remaining binding at 1 µM: 62%
[13]
  remaining binding at 1 µM: 92%
[14]
  remaining binding at 1 µM: 50%
[15]
  remaining binding at 1 µM: 93%
[16]
  remaining binding at 1 µM: 46%
[17]
  remaining binding at 1 µM: 91%
[18]
  remaining binding at 1 µM: 99%
[19]
  remaining binding at 1 µM: 75%
[20]
  remaining binding at 1 µM: 80%
[21]
  remaining binding at 1 µM: 47%
[22]
  remaining binding at 1 µM: 93%
[23]
  remaining binding at 1 µM: 91%
[24]
  remaining binding at 1 µM: 54%
[25]
  remaining binding at 1 µM: 60%
